The results in this text go back to US20240139211A1, “METHODS AND COMPOSITIONS FOR TREATING AMYOTROPHIC LATERAL SCLEROSIS” (Amylyx Pharmaceuticals, Inc., priority 2022, published 2024).

Where “and” joins values, the source holds several entries; their conditions need not be identical. Equal values may be shown once. Read-outs that look alike come from different tables or passages of the source. A value given as a limit tells only on which side of the number the result lay.

The subject of one data set is human hepatocytes. As to conditions: 72 h, 100 μM. The protocol: Plateable and inducible cryopreserved human hepatocytes were thawed and isolated in human hepatocyte thawing medium. […] After attachment (4 hours), the medium was changed to fresh hepatocyte culture medium for overnight cell recovery. […] A positive control (100 μM chlorpromazine) was treated in parallel.

Another data set has as its target hrCYP2C9 (Homo sapiens, UniProt P11712). The following applies: 20 min, 6 μM, pH 7.4.
Data set [1] has as its target T1, CYP2C9 (Homo sapiens, UniProt P11712). The following applies: 4 μM, pH 7.4.
The next data set addresses hrCYP3A4 (Homo sapiens, UniProt P08684). The data set can be described thus: Formation of CYP probe metabolite by hrCYP3A4. Format: in vitro ADME. As to conditions: hrCYP3A4 vs Negative Control, QC criterion ≥2.
Data set [2] addresses T1, CYP2C9. As to the kind of experiment: Inhibition of CYP2C9 in human liver microsomes. As to conditions: pH 7.4. A general note: Microsomes from liver hold many membrane-bound enzymes, among them those of drug oxidation.
A short description of data set [3]: Rat drug-drug interaction study TDF + AMX0035: urine recovery. Type of data set: in vivo. As to conditions: male Sprague Dawley rats, oral, total urine, 24 hour collection. The protocol:
Total urine recovery data for Tenofovir, TDF, and PB was calculated for the 24 hour collection period on Days 1 and 5. […] The reported urine recovery data included amount recovered (ng) and percent recovered (%) for […]. Individual and mean Tenofovir, TDF, and PB urine recovery data were presented with SD, reported to three significant figures, and CV %, reported to one decimal place.

For data set [4] the following is noted: rat, in vivo.
Experimental: This study was comprised of one group of three male CD® (Sprague-Dawley) IGS rats.
Clinical observations were recorded approximately 1 hour post-dose on Days 1-4 and twice on Day 5, once post-AMX0035 administration and once post-TDF administration. Body weight measurements were recorded prior to randomization and then daily through the end of the study.
Nominal dose values and nominal sampling times were used for calculations. […] Pharmacokinetic analysis included the determination of Cmax, Tmax, AUClast, Tlast, and AUC0-24.
The target of a further data set is T2, CYP2B6 (Homo sapiens, UniProt P20813).
T2 sequence (P20813 1-491): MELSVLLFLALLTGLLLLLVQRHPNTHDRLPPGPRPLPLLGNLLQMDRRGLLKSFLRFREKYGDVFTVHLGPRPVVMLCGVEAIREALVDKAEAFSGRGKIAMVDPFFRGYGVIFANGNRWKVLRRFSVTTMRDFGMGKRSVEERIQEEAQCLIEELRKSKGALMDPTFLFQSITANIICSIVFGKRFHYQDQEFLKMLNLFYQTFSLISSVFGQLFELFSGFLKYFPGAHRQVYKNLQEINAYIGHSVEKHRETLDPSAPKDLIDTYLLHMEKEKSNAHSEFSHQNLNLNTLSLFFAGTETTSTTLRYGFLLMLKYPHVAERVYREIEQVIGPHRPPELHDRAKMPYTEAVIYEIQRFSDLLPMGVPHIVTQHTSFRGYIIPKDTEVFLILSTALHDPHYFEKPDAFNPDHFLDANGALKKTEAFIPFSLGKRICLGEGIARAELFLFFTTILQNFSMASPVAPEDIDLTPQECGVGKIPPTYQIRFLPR
The data set can be described thus: in vitro. As to conditions: microsomes, pH 7.4.

Chain of hrCYP2C9 (P11712 whole entry): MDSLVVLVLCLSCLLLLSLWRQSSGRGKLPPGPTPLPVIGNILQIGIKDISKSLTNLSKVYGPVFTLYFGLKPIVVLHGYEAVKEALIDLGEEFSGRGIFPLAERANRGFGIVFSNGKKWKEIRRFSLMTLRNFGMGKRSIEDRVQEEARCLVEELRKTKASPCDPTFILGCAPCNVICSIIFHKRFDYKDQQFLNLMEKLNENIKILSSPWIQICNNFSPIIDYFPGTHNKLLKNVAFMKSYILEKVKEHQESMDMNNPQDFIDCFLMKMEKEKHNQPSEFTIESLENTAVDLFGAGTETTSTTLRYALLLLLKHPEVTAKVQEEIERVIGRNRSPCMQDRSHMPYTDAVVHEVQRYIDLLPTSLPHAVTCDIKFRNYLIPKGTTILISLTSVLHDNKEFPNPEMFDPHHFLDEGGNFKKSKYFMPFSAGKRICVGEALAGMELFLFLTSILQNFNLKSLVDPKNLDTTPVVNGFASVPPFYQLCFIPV
T1 sequence (P11712 whole entry): as above
Chain of hrCYP3A4 (P08684 whole entry): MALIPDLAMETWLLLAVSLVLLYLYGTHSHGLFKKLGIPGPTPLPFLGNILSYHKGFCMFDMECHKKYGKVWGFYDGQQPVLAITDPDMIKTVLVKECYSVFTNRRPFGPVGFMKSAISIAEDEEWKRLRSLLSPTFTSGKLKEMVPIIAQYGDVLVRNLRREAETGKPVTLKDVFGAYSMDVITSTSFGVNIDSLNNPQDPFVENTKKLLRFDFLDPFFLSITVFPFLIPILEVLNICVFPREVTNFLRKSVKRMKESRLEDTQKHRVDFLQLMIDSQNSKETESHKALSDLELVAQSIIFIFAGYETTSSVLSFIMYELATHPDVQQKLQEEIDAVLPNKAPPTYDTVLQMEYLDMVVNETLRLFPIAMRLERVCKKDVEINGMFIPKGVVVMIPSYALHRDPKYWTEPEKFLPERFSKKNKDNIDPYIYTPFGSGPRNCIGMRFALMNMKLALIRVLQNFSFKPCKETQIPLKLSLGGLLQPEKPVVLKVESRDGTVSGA

As for `CN(C)CCCN1c2ccccc2Sc2ccc(Cl)cc21` [Chlorpromazine, chlorpromazine], in the data set on human hepatocytes, the “% MTS absorbance relative to vehicle control” value is 24.3% and the “Formazan absorbance, mean” value is listed as 0.160.

As to `O=C(O)Cc1ccccc1Nc1c(Cl)cccc1Cl` [Diclofenac], the figures for the “Formation Rate” value at hrCYP2C9 and at hrCYP2C9 (human) were 0 pmol metabolite/min/mg Supersome protein and 845 pmol metabolite/min/mg Supersome protein, respectively. Further, the “Measured Metabolite” value on hrCYP2C9 is 0 µM; on hrCYP2C9 (human), 1.56 µM. Moreover, the “Formation Rate Ratio” value at CYP2C9 [1] is 7.7.

Regarding `Cc1ncc2n1-c1ccc(Cl)cc1C(c1ccccc1F)=NC2` [Midazolam], at hrCYP3A4 (Midazolam (2 μM)), the “Formation Rate Ratio” value was >>2.

As for `Nc1ccc(S(=O)(=O)Nc2ccnn2-c2ccccc2)cc1` [Sulfaphenazole], at CYP2C9 [2], the activity at 3.33 µM was 23.8% and the activity at 10 µM amounted to 14.9%.

With `C[C@H](Cn1cnc2c(N)ncnc21)OCP(=O)(O)O` [Tenofovir], the “Amount Recovered” value in data set [3] (Day 1, TDF only 25 mg/kg, individual animals) was 77300 ng and 63200 ng and 234000 ng; in data set [3] (Day 1, TDF only 25 mg/kg, mean) it was 125000 ng; in data set [3] (Day 5, AMX0035 + TDF 840/25 mg/kg, individual animals), 764000 ng and 296000 ng and 99500 ng; in data set [3] (Day 5, AMX0035 + TDF 840/25 mg/kg, mean), 386000 ng. Also, the “Fold increase of mean AUClast in the presence of AMX0035” value in data set [4] is given as 2.17 fold. The “Fold increase of mean Cmax in the presence of AMX0035” value in data set [4] came out at 1.24 fold. Further, in data set [4], the “Individual Tmax” value was 15 min.

Turning to `C[C@]12CC[C@H]3[C@@H](CCC4=CC(=O)CC[C@@]43C)[C@@H]1CC[C@@H]2O` [Testosterone], on hrCYP3A4 (Testosterone (50 μM)), the “Formation Rate Ratio” value is given as >>2.

At CYP2B6, `S=P(N1CC1)(N1CC1)N1CC1` [Thio-TEPA] had an activity at 3.33 µM of 66.9%, an activity at 10 µM of 44.1% and an activity at 30 µM of 26.7%.
